Reference: US20110224256A1, “T[…] THE TREATMENT OF PSYCHIATRIC DISORDERS” (priority 2008, published 2011)
“And” between values parts separate entries of the source, which are not always exact repeats. Equal entries are not always repeated. Structures can show the parent of a compound that is named as a salt.

Key:
Sprague-Dawley male rats = assay: rCBV by MRI with MION contrast after MPH challenge in adulthood; assay type: in vivo
Protocol: MRI was conducted in two groups of animals (MPH-treated or VEH treated; n=7) at approximately 60 days old. Functional changes in rCBV were determined by drug-induced alterations following paramagnetic contrast agent […] iron oxide nanocolloid (MION) in anesthetized treated subjects (Chen et al., 2001). All experiments were performed at 2 T or 4.7 T on a GE Omega CSI instrument (GE, Fremont, Calif., USA) using a home-built surface coil for transmit-receive and immobilization of the head using a rigid plastic head holder. All VEH/MPH subjects were matched for scanner strength to control for any possible differences due to magnet strength (Mandeville et al., Magn. Reson. Med., 52:1272-1281 (2004)). […]
According to standard methods, 20 baseline images were collected, followed by a 10 mg/kg injection of MION (an iron particle-based contrast agent that produces long-lasting intravascular contrast for T2* contrast measures) and an additional 20 baseline images. […] Images were measured serially with a temporal resolution of 2 min.
All functional images within each condition were registered onto the same standard brain template to facilitate comparisons between the experimental groups. Registration parameters were determined for each functional scan using a single full-brain image set that is the average of all baseline time points prior to drug injection. […]

D3 receptor mRNA = D3 receptor mRNA by Q-PCR after juvenile drug exposure; assay type: in vivo, Sprague-Dawley rats; conditions: for reduction in D3 receptor mRNA: MPH 2 mg/kg i.p. twice daily P20-P35, HCl

## COC(=O)C(c1ccccc1)C1CCCCN1 (stereo not drawn) [MPH, d,l-Methylphenidate HCl]
Sprague-Dawley male rats; MPFCx, juvenile MPH 2 mg/kg twice daily P20-P35 vs VEH-treated, 2 mg/kg i.v. MPH challenge
  rCBV change after MPH challenge in adulthood: significantly increased
Sprague-Dawley male rats; dorsolateral PFCx or caudate putamen, juvenile MPH exposure
  enduring effects of juvenile exposure on rCBV: no significant enduring effects
D3 receptor mRNA; MPFCx, assessed at P40
  reduction in D3 receptor mRNA: 28.9±8.3% and 28.9%
D3 receptor mRNA; MPFCx, corrected by GAPDH, juvenile MPH 2 mg/kg or MPH + 0.05 mg/kg Naf, F3,20=8.76, P<0.001
  D3 mRNA levels in the place-conditioned animals: significantly changed
D3 receptor mRNA; MPFCx, relative to VEH controls, 25 days post-exposure (P60)
  reduction in D3 receptor mRNA: 23.8±6.7% and 23.8%
D3 receptor mRNA; accumbens or striatum, MPH-exposed, P>0.5
  D3 mRNA change: did not change
